From US10781211B2, “Spirocycle compounds and methods of making and using same” (Lundbeck La Jolla Research Center, Inc., priority 2016, dated 2020)

Columns and labels:
Assay type in all cases: in vivo
Conditions in all cases: 5 mg/kg oral gavage
[1] = molecular target: ABHD6 (Mus musculus (Mouse), UniProt Q8R2Y0); assay: Mouse brain proteomes from inhibitor treated mice (oral gavage, sacrifice 4 h after administration, ABPP analysis), ABHD6
How it was run: (§1)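 Values give % inhibition in brain after a 5 mg/kg oral gavage dose to wild-type C57Bl/6J mice, with vehicle e.g. PEG400/Ethanol/PBS (7/2/1). Animals were killed 4 h post-dose and brain proteome activity was read by ABPP.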

[2] = molecular target: MAGL (Mus musculus (Mouse), UniProt O35678); assay: Mouse brain proteomes from inhibitor treated mice (oral gavage, sacrifice 4 h after administration, ABPP analysis)
Sequence of MAGL (O35678 whole entry): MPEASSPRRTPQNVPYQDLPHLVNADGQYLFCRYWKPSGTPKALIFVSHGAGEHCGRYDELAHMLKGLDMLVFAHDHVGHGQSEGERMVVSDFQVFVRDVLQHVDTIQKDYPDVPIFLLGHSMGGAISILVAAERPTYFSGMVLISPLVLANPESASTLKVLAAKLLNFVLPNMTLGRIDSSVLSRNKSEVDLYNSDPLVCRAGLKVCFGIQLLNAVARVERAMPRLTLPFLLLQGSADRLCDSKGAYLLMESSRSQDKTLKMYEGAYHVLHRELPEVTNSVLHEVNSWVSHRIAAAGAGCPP
How it was run: as §1

[3] = molecular target: FAAH (Mus musculus (Mouse), UniProt O08914); assay: Mouse brain proteomes from inhibitor treated mice (oral gavage, sacrifice 4 h after administration, ABPP analysis), FAAH
Sequence of FAAH (O08914 whole entry): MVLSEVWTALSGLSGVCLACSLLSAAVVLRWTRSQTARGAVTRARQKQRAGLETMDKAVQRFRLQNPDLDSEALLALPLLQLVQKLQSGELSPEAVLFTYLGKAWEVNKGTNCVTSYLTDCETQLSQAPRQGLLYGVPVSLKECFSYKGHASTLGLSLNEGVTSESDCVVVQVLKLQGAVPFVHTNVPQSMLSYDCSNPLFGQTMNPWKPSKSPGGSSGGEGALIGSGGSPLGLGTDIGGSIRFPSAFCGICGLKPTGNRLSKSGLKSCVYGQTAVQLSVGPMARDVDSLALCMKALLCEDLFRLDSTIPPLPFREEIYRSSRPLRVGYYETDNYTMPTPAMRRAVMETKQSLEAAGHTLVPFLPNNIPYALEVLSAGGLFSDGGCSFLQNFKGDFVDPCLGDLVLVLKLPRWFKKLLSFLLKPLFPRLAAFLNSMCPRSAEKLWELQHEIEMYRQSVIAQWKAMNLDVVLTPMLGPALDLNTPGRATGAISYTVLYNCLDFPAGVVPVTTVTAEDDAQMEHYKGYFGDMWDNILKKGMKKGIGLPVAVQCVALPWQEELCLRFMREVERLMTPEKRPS
How it was run: as §1

Sequence of ABHD6 (Q8R2Y0 whole entry): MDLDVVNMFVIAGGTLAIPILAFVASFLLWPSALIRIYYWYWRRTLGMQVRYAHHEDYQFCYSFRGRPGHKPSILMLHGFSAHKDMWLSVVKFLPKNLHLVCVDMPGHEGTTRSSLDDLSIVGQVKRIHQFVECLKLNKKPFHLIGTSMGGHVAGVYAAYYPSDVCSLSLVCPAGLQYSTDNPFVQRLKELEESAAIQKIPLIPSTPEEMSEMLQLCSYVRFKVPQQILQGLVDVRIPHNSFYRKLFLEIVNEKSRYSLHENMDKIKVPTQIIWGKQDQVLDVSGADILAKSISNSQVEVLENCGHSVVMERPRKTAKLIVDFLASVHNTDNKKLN

O=C(OC(C(F)(F)F)C(F)(F)F)N1CCC2(CCCN2Cc2cccc(OCCF)c2)CC1 [Example 27, 1,1,1,3,3,3-Hexafluoropropan-2-yl 1-(3-(2-fluoroethoxy)benzyl)-1,8-diazaspiro[4.5]decane-8-carboxylate]
ABHD6 % Inh 5 mg/kg (mouse) [1]: # (# is < 25%)
MAGL % Inh 5 mg/kg (mouse) [2]: ### (### is ≥ 75%)
FAAH % Inh 5 mg/kg (mouse) [3]: # (# is < 25%)

O=C(OC(C(F)(F)F)C(F)(F)F)N1CCC2(CCCN2Cc2cc(Cl)cc(N3CCCC3)c2)CC1 [Example 34, 1,1,1,3,3,3-Hexafluoropropan-2-yl 1-(3-chloro-5-(pyrrolidin-1-yl)benzyl)-1,8-diazaspiro[4.5]decane-8-carboxylate]
ABHD6 % Inh 5 mg/kg (mouse) [1]: # (# is < 25%)
MAGL % Inh 5 mg/kg (mouse) [2]: ### (### is ≥ 75%)
FAAH % Inh 5 mg/kg (mouse) [3]: # (# is < 25%)

CS(=O)(=O)C1CCN(c2cc(C(F)(F)F)ccc2CN2CCCC23CCN(C(=O)OC(C(F)(F)F)C(F)(F)F)CC3)CC1 [Example 267]
ABHD6 % Inh 5 mg/kg (mouse) [1]: # (# is < 25%)
MAGL % Inh 5 mg/kg (mouse) [2]: # (# is < 25%)
FAAH % Inh 5 mg/kg (mouse) [3]: # (# is < 25%)

Cc1c(CN2CCCC23CCN(C(=O)OC(C(F)(F)F)C(F)(F)F)CC3)cccc1N1CCCCC1 [Example 84, 1,1,1,3,3,3-Hexafluoropropan-2-yl 1-(2-methyl-3-(piperidin-1-yl)benzyl)-1,8-diazaspiro[4.5]decane-8-carboxylate]
ABHD6 % Inh 5 mg/kg (mouse) [1]: # (# is < 25%)
MAGL % Inh 5 mg/kg (mouse) [2]: ### (### is ≥ 75%)
FAAH % Inh 5 mg/kg (mouse) [3]: # (# is < 25%)

CC1(C(=O)O)CN(c2cc(C(F)(F)F)ccc2CN2CCC3(CCN(C(=O)OC(C(F)(F)F)C(F)(F)F)CC3)C2)CCO1 (stereo not drawn) [Example 256]
ABHD6 % Inh 5 mg/kg (mouse) [1]: # (# is < 25%)
MAGL % Inh 5 mg/kg (mouse) [2]: # (# is < 25%)
FAAH % Inh 5 mg/kg (mouse) [3]: # (# is < 25%)

CC(=O)N1CCN(c2cc(Cl)ccc2CN2CCCC23CCN(C(=O)OC(C(F)(F)F)C(F)(F)F)CC3)CC1 [Example 99, 1,1,1,3,3,3-Hexafluoropropan-2-yl 1-(2-(4-acetylpiperazin-1-yl)-4-chlorobenzyl)-1,8-diazaspiro[4.5]decane-8-carboxylate]
ABHD6 % Inh 5 mg/kg (mouse) [1]: # (# is < 25%)
MAGL % Inh 5 mg/kg (mouse) [2]: ### (### is ≥ 75%)
FAAH % Inh 5 mg/kg (mouse) [3]: # (# is < 25%)

O=C(OC(C(F)(F)F)C(F)(F)F)N1CCC2(CCCN2Cc2cc(N3CCOCC3)cc(C(F)(F)F)c2)CC1 [Example 35, 1,1,1,3,3,3-Hexafluoropropan-2-yl 1-(3-morpholino-5-(trifluoromethyl)benzyl)-1,8-diazaspiro[4.5]decane-8-carboxylate]
ABHD6 % Inh 5 mg/kg (mouse) [1]: # (# is < 25%)
MAGL % Inh 5 mg/kg (mouse) [2]: ### (### is ≥ 75%)
FAAH % Inh 5 mg/kg (mouse) [3]: # (# is < 25%)

Cc1c(CN2CCCC23CCN(C(=O)OC(C(F)(F)F)C(F)(F)F)CC3)cccc1N1CCCC1 [Example 85, 1,1,1,3,3,3-Hexafluoropropan-2-yl 1-(2-methyl-3-(pyrrolidin-1-yl)benzyl)-1,8-diazaspiro[4.5]decane-8-carboxylate]
ABHD6 % Inh 5 mg/kg (mouse) [1]: # (# is < 25%)
MAGL % Inh 5 mg/kg (mouse) [2]: ### (### is ≥ 75%)
FAAH % Inh 5 mg/kg (mouse) [3]: # (# is < 25%)

CCOc1ccc(CN2CCCC23CCN(C(=O)OC(C(F)(F)F)C(F)(F)F)CC3)cc1 [Example 4, 1,1,1,3,3,3-Hexafluoropropan-2-yl 1-(4-ethoxybenzyl)-1,8-diazaspiro[4.5]decane-8-carboxylate]
ABHD6 % Inh 5 mg/kg (mouse) [1]: # (# is < 25%)
MAGL % Inh 5 mg/kg (mouse) [2]: ### (### is ≥ 75%)
FAAH % Inh 5 mg/kg (mouse) [3]: # (# is < 25%)

O=C(OC(C(F)(F)F)C(F)(F)F)N1CCC2(CCCN2Cc2ccc(Cl)cc2OCCF)CC1 [Example 30, 1,1,1,3,3,3-Hexafluoropropan-2-yl 1-(4-chloro-2-(2-fluoroethoxy)benzyl)-1,8-diazaspiro[4.5]decane-8-carboxylate]
ABHD6 % Inh 5 mg/kg (mouse) [1]: # (# is < 25%)
MAGL % Inh 5 mg/kg (mouse) [2]: ### (### is ≥ 75%)
FAAH % Inh 5 mg/kg (mouse) [3]: # (# is < 25%)

CN1CCCc2ccc(CN3CCCC34CCN(C(=O)OC(C(F)(F)F)C(F)(F)F)CC4)cc21 [Example 68, 1,1,1,3,3,3-Hexafluoropropan-2-yl 1-((1-methyl-1,2,3,4-tetrahydroquinolin-7-yl)methyl)-1,8-diazaspiro[4.5]decane-8-carboxylate]
ABHD6 % Inh 5 mg/kg (mouse) [1]: # (# is < 25%)
MAGL % Inh 5 mg/kg (mouse) [2]: ### (### is ≥ 75%)
FAAH % Inh 5 mg/kg (mouse) [3]: # (# is < 25%)

O=C(O)C1CCN(c2cc(C(F)(F)F)ccc2CN2CCCC23CCN(C(=O)OC(C(F)(F)F)C(F)(F)F)CC3)CC1 [Example 121, 1-(2-((8-(((1,1,1,3,3,3-Hexafluoropropan-2-yl)oxy)carbonyl)-1,8-diazaspiro[4.5]decan-1-yl)methyl)-5-(trifluoromethyl)phenyl)piperidine-4-carboxylic acid]
ABHD6 % Inh 5 mg/kg (mouse) [1]: # (# is < 25%)
MAGL % Inh 5 mg/kg (mouse) [2]: ### (### is ≥ 75%)
FAAH % Inh 5 mg/kg (mouse) [3]: # (# is < 25%)

CS(=O)(=O)NC1CCN(c2cc(C(F)(F)F)ccc2CN2CCCC23CCN(C(=O)OC(C(F)(F)F)C(F)(F)F)CC3)CC1 [Example 94, 1,1,1,3,3,3-Hexafluoropropan-2-yl 1-(2-(4-(methylsulfonamido)piperidin-1-yl)-4-(trifluoromethyl)benzyl)-1,8-diazaspiro[4.5]decane-8-carboxylate]
ABHD6 % Inh 5 mg/kg (mouse) [1]: # (# is < 25%)
MAGL % Inh 5 mg/kg (mouse) [2]: # (# is < 25%)
FAAH % Inh 5 mg/kg (mouse) [3]: # (# is < 25%)

Cc1cc(CN2CCCC23CCN(C(=O)OC(C(F)(F)F)C(F)(F)F)CC3)ccc1Cl [Example 124, 1,1,1,3,3,3-Hexafluoropropan-2-yl 1-(4-chloro-3-methylbenzyl)-1,8-diazaspiro[4.5]decane-8-carboxylate]
ABHD6 % Inh 5 mg/kg (mouse) [1]: # (# is < 25%)
MAGL % Inh 5 mg/kg (mouse) [2]: ### (### is ≥ 75%)
FAAH % Inh 5 mg/kg (mouse) [3]: # (# is < 25%)

CCc1cc(CN2CCC3(CCN(C(=O)OC(C(F)(F)F)C(F)(F)F)CC3)C2)ccc1F [Example 152, 1,1,1,3,3,3-Hexafluoropropan-2-yl 2-(3-ethyl-4-fluorobenzyl)-2,8-diazaspiro[4.5]decane-8-carboxylate]
ABHD6 % Inh 5 mg/kg (mouse) [1]: ### (### is ≥ 75%)
MAGL % Inh 5 mg/kg (mouse) [2]: ### (### is ≥ 75%)
FAAH % Inh 5 mg/kg (mouse) [3]: # (# is < 25%)

O=C(OC(C(F)(F)F)C(F)(F)F)N1CCC2(CCCN2Cc2cc(OC(F)(F)F)cc(N3CCOCC3)c2)CC1 [Example 37, 1,1,1,3,3,3-Hexafluoropropan-2-yl 1-(3-morpholino-5-(trifluoromethoxy)benzyl)-1,8-diazaspiro[4.5]decane-8-carboxylate]
ABHD6 % Inh 5 mg/kg (mouse) [1]: # (# is < 25%)
MAGL % Inh 5 mg/kg (mouse) [2]: ### (### is ≥ 75%)
FAAH % Inh 5 mg/kg (mouse) [3]: # (# is < 25%)

O=C(OC(C(F)(F)F)C(F)(F)F)N1CCC2(CCCN2Cc2ccc(Cl)cc2N2CCCC2)CC1 [Example 76, 1,1,1,3,3,3-Hexafluoropropan-2-yl 1-(4-chloro-2-(pyrrolidin-1-yl)benzyl)-1,8-diazaspiro[4.5]decane-8-carboxylate]
ABHD6 % Inh 5 mg/kg (mouse) [1]: # (# is < 25%)
MAGL % Inh 5 mg/kg (mouse) [2]: ### (### is ≥ 75%)
FAAH % Inh 5 mg/kg (mouse) [3]: # (# is < 25%)

O=C(OC(C(F)(F)F)C(F)(F)F)N1CCC2(CCCN2Cc2ccc(N3CCCC3)c(Cl)c2)CC1 [Example 128, 1,1,1,3,3,3-Hexafluoropropan-2-yl 1-(3-chloro-4-(pyrrolidin-1-yl)benzyl)-1,8-diazaspiro[4.5]decane-8-carboxylate]
ABHD6 % Inh 5 mg/kg (mouse) [1]: # (# is < 25%)
MAGL % Inh 5 mg/kg (mouse) [2]: ### (### is ≥ 75%)
FAAH % Inh 5 mg/kg (mouse) [3]: # (# is < 25%)

O=C(OC(C(F)(F)F)C(F)(F)F)N1CCC2(CCCN2Cc2cc(N3CC4COCC4C3)cc(C(F)(F)F)c2)CC1 (stereo not drawn) [Example 46, 1,1,1,3,3,3-Hexafluoropropan-2-yl 1-(3-(tetrahydro-1H-furo[3,4-c]pyrrol-5(3H)-yl)-5-(trifluoromethyl)benzyl)-1,8-diazaspiro[4.5]decane-8-carboxylate]
ABHD6 % Inh 5 mg/kg (mouse) [1]: # (# is < 25%)
MAGL % Inh 5 mg/kg (mouse) [2]: ### (### is ≥ 75%)
FAAH % Inh 5 mg/kg (mouse) [3]: # (# is < 25%)

O=C(O)C1CCN(C(=O)c2cc(C(F)(F)F)ccc2CN2CCCC23CCN(C(=O)OC(C(F)(F)F)C(F)(F)F)CC3)CC1 [Example 281]
ABHD6 % Inh 5 mg/kg (mouse) [1]: # (# is < 25%)
MAGL % Inh 5 mg/kg (mouse) [2]: # (# is < 25%)
FAAH % Inh 5 mg/kg (mouse) [3]: # (# is < 25%)

O=C(OC(C(F)(F)F)C(F)(F)F)N1CCC2(CCCN2Cc2ccc(C(F)(F)F)cc2N2CCC2)CC1 [Example 96, 1,1,1,3,3,3-Hexafluoropropan-2-yl 1-(2-(azetidin-1-yl)-4-(trifluoromethyl)benzyl)-1,8-diazaspiro[4.5]decane-8-carboxylate]
ABHD6 % Inh 5 mg/kg (mouse) [1]: # (# is < 25%)
MAGL % Inh 5 mg/kg (mouse) [2]: ### (### is ≥ 75%)
FAAH % Inh 5 mg/kg (mouse) [3]: # (# is < 25%)

O=C(OC(C(F)(F)F)C(F)(F)F)N1CCC2(CCCN2Cc2cc(N3CCCC3)cc(C(F)(F)F)c2)CC1 [Example 36, 1,1,1,3,3,3-Hexafluoropropan-2-yl 1-(3-(pyrrolidin-1-yl)-5-(trifluoromethyl)benzyl)-1,8-diazaspiro[4.5]decane-8-carboxylate]
ABHD6 % Inh 5 mg/kg (mouse) [1]: # (# is < 25%)
MAGL % Inh 5 mg/kg (mouse) [2]: ### (### is ≥ 75%)
FAAH % Inh 5 mg/kg (mouse) [3]: # (# is < 25%)
